Test results from patent publication US20190345138A1, “HETEROCYCLIC AMIDES AS KINASE INHIBITORS” (GlaxoSmithKline Intellectual Property Development Limited, priority 2016, published 2019).
Entries after “also recorded” stand apart in the source; their conditions may differ.

Tests used:
[1] = system: B16BL6 (melanoma); assay: syngeneic subcutaneous tumor model B16BL6; format: in vivo, mouse; details: RIP1i = Example 78 40 mg/kg p.o. BID, alone or with anti-PD1
Description: (§1) The efficacy of RIP1 inhibition was tested in 12 different murine (6-8 week old) syngeneic subcutaenous tumor models. RIP1 inhibition was tested as a single agent in all models, with anti-PD1 combination arms added to the five of the final models.
(§2) T and C are the mean tumor volume of the treated and control groups, respectively, on a given day. • 2) Tumor and plasma collection at study end for further investigation.
(§3) The 12 syngenic cell lines were maintained in vitro with different medium (indicated in Table C) at 37° C. in an atmosphere of 5% CO2 in air. The tumor cells were routinely subcultured twice weekly. The cells in an exponential growth phase were harvested and counted for tumor inoculation.
(§4) Each mouse was inoculated subcutaneously with tumor cells in 0.1 mL of PBS for tumor development. The treatments were started when the mean tumor size reached approximately 80-120 mm^3 (around 100 mm^3).

[2] = system: H22 (hepatoma); assay: syngeneic subcutaneous tumor model H-22; format: in vivo, mouse; details: RIP1i = Example 78 40 mg/kg p.o. BID x up to 21 days
Description: as §1, §2, §3, §4

[3] = system: Renca (renal); assay: syngeneic subcutaneous tumor model Renca; format: in vivo, mouse; details: RIP1i = Example 78 40 mg/kg p.o. BID x up to 21 days
Description: as §1, §2, §3, §4

[4] = system: Sharpin-deficient mice (cpdm); assay: Sharpin-deficient mouse model of TNF-dependent dermatitis; format: in vivo; details: food-based 100 or 10 mg/kg/day
Description: Sharpin-deficient mice (cpdm) develop a spontaneous and severe TNF- and RIPK1-dependent dermatitis and multi-organ immunopathology around 6-8 weeks of age (S. B. Berger et al., Journal of Immunology, 192(12):5476-5480, (2014)). Mice were dosed with RIP1 inhibitors at the time of weaning (3-4 weeks of age) prior to the development of dermatitis lesions or therapeutically after the development of dermatitis lesions (about 6 weeks of age) using a food-based dosing regimen, such that mice (4-7 mice per group) received on average 100 mg/kg/day or 10 mg/kg/day of RIP1 inhibitor in diet or control diet. […] The character of the lesion was categorized according the following, in order of increasing severity, 0=none, 1=excoriation only or one small punctuated crust (≤2 mm), 2=multiple, small punctuate crusts or coalescing crust (>2 mm), 3=erosion or ulceration. The regions were identified as: Region 1: the head cranial to the medial pinna attachment and/or lesions affecting the mandible cranial to the sternum, Region 2: inner and outer pinna, dorsal cervical region caudal to the medial pinna attachment, dorsal and ventral thorax, and thoracic limbs, Region 3: any region caudal to the ribcage. A score for the regions affected was categorized per the following: 0=none; 1=Region 2 or 3; 2=Region 2 and 3; 3=Region 1+/−other affected regions. […]

[5] = system: LL/2 (Lewis lung); assay: syngeneic subcutaneous tumor model LL/2; format: in vivo, mouse; details: RIP1i = Example 78 40 mg/kg p.o. BID x up to 21 days
Description: as §1, §2, §3, §4

[6] = system: A20 (B lymphoma); assay: syngeneic subcutaneous tumor model A20; format: in vivo, mouse; details: RIP1i = Example 78 40 mg/kg p.o. BID x up to 21 days
Description: as §1, §2, §3, §4

[7] = system: MBT2 (bladder); assay: syngeneic subcutaneous tumor model MBT2; format: in vivo, mouse; details: RIP1i = Example 78 40 mg/kg p.o. BID, alone or with anti-PD1
Description: as §1, §2, §3, §4

[8] = system: CT26 (colon); assay: syngeneic subcutaneous tumor model CT-26; format: in vivo, mouse; details: RIP1i = Example 78 40 mg/kg p.o. BID x up to 21 days
Description: as §1, §2, §3, §4

[9] = system: Diet-induced obese, male mice C57Bl/6J; assay: obesity, high fat diet-fed mice; format: in vivo, mouse
Text: Inflammation is known to be a contributing factor in the pathogenesis of diabetes and obesity (Chen. et. al., International Journal of Endocrinology (2015)). We therefore explored the effect of blocking RIPK1 kinase activity on body weight in mice made obese by chronic feeding of a high fat diet (HFD). Diet-induced obese, male mice C57Bl/6J (Jackson Labs Stock#380050) arrived at 22 weeks of age, with average body weight of 40 g and acclimated for one week and maintained on HFD. Mice were then acclimated to oral gavage with water for 7 days before study start. Thereafter mice received RIPK 1 inhibitor (50 mg/kg, bid, n=9) or vehicle (bid, n=9) for 19 days. Food intake was measured twice weekly and body weight was measured daily throughout the study.

[10] = system: Pan02 (pancreatic); assay: syngeneic subcutaneous tumor model Pan02; format: in vivo, mouse; details: Pan02, PG21; RIP1i = Example 78 40 mg/kg p.o. BID, alone or with anti-PD1
Description: as §1, §2, §3, §4

[11] = system: B16F10 (melanoma); assay: syngeneic subcutaneous tumor model B16F10; format: in vivo, mouse; details: RIP1i = Example 78 40 mg/kg p.o. BID x up to 21 days
Description: as §1, §2, §3, §4

[12] = system: RM-1(prostate); assay: syngeneic subcutaneous tumor model RM-1; format: in vivo, mouse; details: RIP1i = Example 78 40 mg/kg p.o. BID, alone or with anti-PD1
Description: as §1, §2, §3, §4

[13] = system: MC38 (colon); assay: syngeneic subcutaneous tumor model MC38; format: in vivo, mouse; details: RIP1i = Example 78 40 mg/kg p.o. BID, alone or with anti-PD1
Description: as §1, §2, §3, §4

[14] = system: EMT-6 (breast); assay: syngeneic subcutaneous tumor model EMT-6; format: in vivo, mouse; details: RIP1i = Example 78 40 mg/kg p.o. BID x up to 21 days
Description: as §1, §2, §3, §4

[15] = system: db/db mice; assay: glucose homeostasis in db/db mice; format: in vivo, mouse; details: 100 mg/kg/day in chow
Text: We therefore investigated the ability of our small molecule RIPK1 inhibitor to improve glucose homeostasis in a diabetic animal model. Mice genetically deficient for the leptin receptor (db/db mice; Jackson Labs, BKS.Cg-Dock7m+/+Leprdb/J) are a widely used animal model of insulin resistance and diabetes. In our study, 4-week old male db/db mice were acclimated for a period of one week. At this point, when the mice were 5 weeks of age, the study was started. Mice were then divided into two group (n=10/group) and baseline measurements of non-fasted blood glucoses (using a glucometer) and body weight were taken. After baseline measurements, one group of mice was fed chow containing RIPK1 inhibitor (100 mg/kg/day, n=10) and the other remained on normal chow (n=10). Animals remained on these diets for 6 weeks. Additional measurements of non-fasted blood glucose and body weight were taken 2 and 4 weeks after study start. At week 8, mice were fasted overnight (16 hours) and fasted blood glucose and body weight were measured on the following day.

SMILES: N#Cc1cc(N2CCC(C(=O)N3N=CC[C@H]3c3cc(F)cc(F)c3)CC2)ncn1 [Example 78, (S)-6-(4-(5-(3,5-difluorophenyl)-4,5-dihydro-1H-pyrazole-1-carbonyl)piperidin-1-yl)pyrimidine-4-carbonitrile]
- Mean tumor growth inhibition (TGI) at model termination [1]: 16%
- Mean tumor growth inhibition (TGI) at model termination [2]: 19%
- Mean tumor growth inhibition (TGI) at model termination [3]: 19%
- development of severe dermatitis ([4]; pre-dosing from weaning (3-4 weeks of age)): complete protection from the development of severe dermatitis
- established dermatitis ([4]; therapeutic dosing after development of lesions (about 6 weeks of age)): rescued established dermatitis
- Mean tumor growth inhibition (TGI) at model termination [5]: 22%
- Mean tumor growth inhibition (TGI) at model termination [6]: 0.6%
- Mean tumor growth inhibition (TGI) at model termination [7]: −4%
- Mean tumor growth inhibition (TGI) at model termination [8]: 19%
- body weight ([9]; 50 mg/kg bid PO for 19 days, versus vehicle): did not gain weight
- food intake ([9]; 50 mg/kg bid PO, day 2 and day 5, versus vehicle): initially reduced their food intake
- Mean tumor growth inhibition (TGI) at model termination [10]: PG21: 46%
- Mean tumor growth inhibition (TGI) at model termination [11]: 20%
- Mean tumor growth inhibition (TGI) at model termination [12]: −8%
- Mean tumor growth inhibition (TGI) at model termination [13]: −16%
- Mean tumor growth inhibition (TGI) at model termination [14]: 21%
- fasted blood glucose ([15]; week 8, fasted overnight (16 hours), versus normal chow): improves fasted blood glucose; also recorded: significantly lower
- non-fasted (fed) blood glucose ([15]; weeks 2 and 4, versus normal chow): improves fed blood glucose over time; also recorded: Reduced non-fasted blood glucose at weeks 2 and 4
